Experiments:
in vivo [1] = settings: female, rabbit, in vivo, iv
Summary of the method: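 Female New Zealand white rabbits received a compound mixture IV via ear-vein catheter; serum sampled sparsely (3 rabbits/time point) from 15 min to 28 d. Noncompartmental sparse-data analysis on mean profiles: linear-trapezoidal AUC, CL as dose/AUC0−inf, half-life from λZ, MRT and VSS.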

in vivo [2] = settings: female, rabbit, in vivo, po
Summary of the method: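 Female New Zealand white rabbits (10-wk, 2.37±0.14kg) got the compound mixture IV via ear-vein catheter or orally into the mouth; serum sampled 15 min to 28 d, 3 (or 6 at 30 min) rabbits per time. Sparse-data noncompartmental analysis gave AUC (linear trapezoidal), CL or CL_F, half-life and F.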

[3] = Estimation of loading and daily maintenance doses and NLME model simulations; design: species or system female rabbits; settings: oral
Summary of the method: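 Loading and daily maintenance doses computed from TK equations for a nominal CSS of 1 ng/mL, then scaled to oral doses for female rabbits. NLME model simulated central and peripheral compartment amounts over repeated daily maintenance dosing.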

[4] = New Zealand white (INRA 1777 line)
[5] = New Zealand white, Serum concentration
[6] = New Zealand white (INRA 1777 line), Serum concentration

Compound ClC(Cl)=C(c1ccc(Cl)cc1)c1ccc(Cl)cc1 [pp′DDE, 1,1-Dichloro-2,2-bis(p-chlorophenyl)ethylene] has an AUC(0-inf) (in vivo [1]; [4]) of 19.8 µM·h, a Cmax (in vivo [1]; [4]) of 900 nM and an MRT (in vivo [1]; [4]) of 203 h. For the same compound, the clearance (in vivo [1]; [4]) was 1.83 mL/min/kg, the half-life (in vivo [1]; [4]) was 238 h and the Vd (in vivo [1]; New Zealand white (INRA 1777 line), VSS) was 23.2 L/kg. For the same compound, the Vd (in vivo [1]; New Zealand white (INRA 1777 line), VZ) was 39.2 L/kg, the Serum concentration (in vivo [1]; New Zealand white, 24 h) was 60 nM and the Serum concentration (in vivo [1]; New Zealand white, 168 h) was 15 nM. For the same compound, the concentration at 0.6 h (in vivo [1]; [5]) was 600 nM, the concentration at 0.67 h (in vivo [1]; [5]) was 900 nM and the concentration at 0.77 h (in vivo [1]; [5]) was 640 nM. For the same compound, the concentration at 24 h (in vivo [1]; [5]) was 65 nM, the concentration at 24.03 h (in vivo [1]; [5]) was 47 nM and the concentration at 71.97 h (in vivo [1]; [5]) was 27 nM. For the same compound, the concentration at 72 h (in vivo [1]; [5]) was 26 nM, the concentration at 72.03 h (in vivo [1]; [5]) was 27 nM and the concentration at 167.92 h (in vivo [1]; [5]) was 11 nM. For the same compound, the concentration at 168 h (in vivo [1]; [5]) was 19 nM, the concentration at 671.83 h (in vivo [1]; [5]) was 3.7 nM and the concentration at 671.96 h (in vivo [1]; [5]) was 2.8 nM. The concentration at 672 h (in vivo [1]; [5]) was 6.8 nM, the AUC(0-inf) (in vivo [2]; [4]) was 78.6 µM·h and the CL/F (in vivo [2]; [4]) was 3 mL/min/kg. For the same compound, the Cmax (in vivo [2]; [4]) was 580 nM, the MRT (in vivo [2]; [4]) was 307 h and the Tmax (in vivo [2]; [4]) was 24 h. The Vd/F (in vivo [2]; [4]) was 68.8 L/kg, the bioavailability (in vivo [2]; [4]) was 62% and the half-life (in vivo [2]; [4]) was 260 h. For the same compound, the Serum concentration (in vivo [2]; New Zealand white (INRA 1777 line), 24 h) was 430 nM, the Serum concentration (in vivo [2]; New Zealand white (INRA 1777 line), 672.02 h) was 40 nM and the concentration at 0.57 h (in vivo [2]; [6]) was 16 nM. It also gave a concentration at 23.98 h (in vivo [2]; [6]) of 250 nM, a concentration at 24 h (in vivo [2]; [6]) of 720 nM and a concentration at 168 h (in vivo [2]; [6]) of 110 nM. For the same compound, the concentration at 671.96 h (in vivo [2]; [6]) was 24 nM, the concentration at 672.02 h (in vivo [2]; [6]) was 31 nM and the Serum concentration (in vivo [2]; New Zealand white, 72 h) was 200 nM. The concentration at 71.96 h (in vivo [2]; [5]) was 250 nM, the concentration at 72 h (in vivo [2]; [5]) was 140 nM and the concentration at 168 h (in vivo [2]; [5]) was 110 nM. The concentration at 168.02 h (in vivo [2]; [5]) was 91 nM, the Computed maintenance dose ([3]; daily, scaled to the targeted CSS of Table 6) was 0.095 mg/kg and the Computed loading dose ([3]; scaled to the targeted CSS of Table 6) was 1,039 μg/kg. The Daily maintenance dose ([3]; to maintain serum concentration of 1 ng/mL, daily CL×Css/F, DEHP dose for MEHP in serum) was 0.0045 mg/kg and the Loading dose ([3]; to rapidly attain serum concentration of 1 ng/mL, Vss×Css/F, DEHP dose for MEHP in serum) was 0.049 mg/kg.

Source: PMC8597046, “Use of Mixture Dosing and Nonlinear Mixed Effect Modeling of Eight Environmental Contaminants in Rabbits to Improve Extrapolation Value of Toxicokinetic Data” (Environmental Health Perspectives, 2021)
